Test results published in patent US12275734B1, “Pleuromutilin onium salt derivative containing a 3H-imidazo[4,5-c]pyridine side chain, and a preparation method and application thereof” (SHAANXI UNIVERSITY OF SCIENCE AND TECHNOLOGY, priority 2024, dated 2025).
Where two headings read alike, the source gives them in different places. Values belong to the compound of their own block, whether it stands above or below them.

Columns and labels:
Type in all cases: cell-based
HepG2 Cells = assay: Cytotoxicity, Cell Counting Kit-8; details: CCK-8, 24 hours incubation; read-out: CC50 HepG2 Cells
Description: (§1) Cell Counting Kit-8 was used to evaluate the cytotoxicity of the compounds.
(§2) (4) Cell culture: HepG2, HEK293 and A549 cells were evenly dispersed in culture medium, seeded into 96-well plates, and cultured under appropriate environmental conditions to keep the cells completely attached to the well walls.
(§3) (5) Compound treatment: Add different concentrations of compounds I-8 and I-9 to each well (the concentrations are 0.78, 1.56, 3.13, 6.25, 12.5, 25, 50 and 100 μM, respectively, and perform 6 parallel experiments). Set up a blank control group and a normal control group. After incubation for 24 hours, observe the cell condition, which observed under a microscope.
(§4) (6) CCK-8 solution treatment: Add CCK-8 solution to each well and incubate for 4 hours to allow it to react with the cells.
(§5) (7) Absorbance determination: Use a full-wavelength scanning multifunctional reader, place the 96-well plate in the instrument, oscillate to mix to make the color evenly distributed, and measure the absorbance value at 490 nm.
(§6) (8) Data analysis: Based on the measured absorbance values, the cell survival rate at different concentrations can be calculated. The median cytotoxic concentration was used to evaluate the cytotoxicity of the compound to A549, HEK293 and HepG2 cells.

A549 Cells = assay: Cytotoxicity, Cell Counting Kit-8; details: CCK-8, 24 hours incubation; read-out: CC50 A549 Cells
Description: as §1, §2, §3, §4, §5, §6

HEK293 Cells = assay: Cytotoxicity, Cell Counting Kit-8; details: CCK-8, 24 hours incubation; read-out: CC50 HEK293 Cells
Description: as §1, §2, §3, §4, §5, §6

[1] = test system: methicillin-resistant Staphylococcus aureus-575; assay: MIC, clinical isolates; details: MRSA, read-out: Antibacterial activity (MIC) MRSA^c
Description: (§7) The minimum inhibitory concentration of 3H-imidazo[4,5-C]pyridine pleuromutilin onium salt derivatives against the tested pathogenic microorganisms were determined by broth microdilution method, with valnemulin and retapamulin as positive controls.
(§8) The experimental strains included resistant Gram-positive bacteria: Methicillin-resistant S. aureus ATCC 33591; Methicillin-resistant S. aureus ATCC 43300; S. aureus ATCC 29213; Methicillin-resistant S. epidermidis ATCC 51625. Resistant Gram-negative bacteria: A. baumannii ATCC 19606; S. enterica ATCC14028; E. coli ATCC 25922; E. coli CMCC 44103. 9 clinically isolated resistant strains: MRSA-171; MRSA-575; MRSA-206; MRSA-222; MRSA-596; VRE-80; MDR-PA-126; MDR-KP-893; CR-AB-882.
(§9) (1) Preparation of MHB medium: Weigh 18.0 g of MHB medium pre-made powder, add it to 1 L of distilled water, heat and boil until completely dissolved, divide it into conical bottles, sterilize it by high pressure at 121° C. for 15 minutes, and set aside.
(§10) (2) Cultivate the experimental strain to the logarithmic growth phase: Under sterile conditions, inoculate the experimental strain into fresh MHB medium and culture it in a 37° C. constant temperature and humidity incubator for 16-24 hours. Adjust the bacterial solution concentration to 1.5×10^8 CFU/mL and then dilute it 200 times for later use.
(§11) (3) Preparation of storage solution: Weigh the sample to be tested, dissolve it in 1% DMSO solution, and prepare a storage solution with a concentration of 2560 μg/mL; weigh the positive control, dissolve it in sterile distilled water, and prepare a storage solution with a concentration of 2560 μg/mL.
(§12) (4) Preparation of bacterial suspension: Under sterile conditions, the experimental strain cultured to the logarithmic growth phase was calibrated to a 0.5 McFarland unit turbidity standard using MHB medium and then diluted at a ratio of 1:200 to prepare a bacterial suspension with a concentration of 5×10^5 CFU/mL for later use.
(§13) (5) Determination of MIC by two-fold microdilution method: Take a sterile 96-well plate, add 10 μL of the test compound at a concentration of 2560 μg/mL, and perform serial dilutions by the two-fold dilution method. At the same time, set up a negative control group without drug. Then add 190 μL of diluted bacterial solution to each well, so that the final bacterial solution concentration in each well is 5×10^5 CFU/mL, and incubate in a 37° C. constant temperature and humidity chamber for 24 hours.

[2] = test system: methicillin-resistant Staphylococcus aureus-596; assay: MIC, clinical isolates; details: MRSA, read-out: Antibacterial activity (MIC) MRSA^f
Description: as §7, §8, §9, §10, §11, §12, §13

[3] = test system: vancomycin-resistant Enterococcus-80; assay: MIC, clinical isolates; details: VRE, read-out: Antibacterial activity (MIC) VRE^g
Description: as §7, §8, §9, §10, §11, §12, §13

[4] = test system: carbapenem-resistant Acinetobacter baumannii-882; assay: MIC, clinical isolates; details: read-out: Antibacterial activity (MIC) CR-AB^j
Description: as §7, §8, §9, §10, §11, §12, §13

[5] = test system: multidrug-resistant Pseudomonas aeruginosa-126; assay: MIC, clinical isolates; details: read-out: Antibacterial activity (MIC) MDR-PA^h
Description: as §7, §8, §9, §10, §11, §12, §13

[6] = test system: methicillin-resistant Staphylococcus aureus-206; assay: MIC, clinical isolates; details: MRSA, read-out: Antibacterial activity (MIC) MRSA^d
Description: as §7, §8, §9, §10, §11, §12, §13

[7] = test system: methicillin-resistant Staphylococcus aureus-171; assay: MIC, clinical isolates; details: MRSA, read-out: Antibacterial activity (MIC) MRSA^b
Description: as §7, §8, §9, §10, §11, §12, §13

[8] = test system: methicillin-resistant Staphylococcus aureus-222; assay: MIC, clinical isolates; details: MRSA / MRSE, read-out: Antibacterial activity (MIC) MRSE^e
Description: as §7, §8, §9, §10, §11, §12, §13

[9] = test system: multidrug-resistant Klebsiella pneumoniae-893; assay: MIC, clinical isolates; details: clinical isolate MDR-KP-893
Description: as §7, §8, §9, §10, §11, §12, §13

E.coli CMCC 44103 = assay: MIC, broth microdilution; details: Escherichia coli
Description: as §7, §8, §9, §10, §11, §12, §13

A. baumannii ATCC 19606 = assay: MIC, broth microdilution; details: Acinetobacter baumannii
Description: as §7, §8, §9, §10, §11, §12, §13

[10] = test system: Methicillin-resistant S. aureus ATCC 33591; assay: MIC, broth microdilution; details: Staphylococcus aureus, ATCC 33591 / MRSA, read-out: Minimum inhibitory concentration MRSA^b
Description: as §7, §8, §9, §10, §11, §12, §13

[11] = test system: Methicillin-resistant S. aureus ATCC 43300; assay: MIC, broth microdilution; details: Staphylococcus aureus, ATCC 43300 / MRSA, read-out: Minimum inhibitory concentration MRSA^c
Description: as §7, §8, §9, §10, §11, §12, §13

S. aureus ATCC 29213 = assay: MIC, broth microdilution; details: Staphylococcus aureus
Description: as §7, §8, §9, §10, §11, §12, §13

E. coli ATCC 25922 = assay: MIC, broth microdilution; details: Escherichia coli
Description: as §7, §8, §9, §10, §11, §12, §13

S. enterica ATCC14028 = assay: MIC, broth microdilution; details: Salmonella enterica
Description: as §7, §8, §9, §10, §11, §12, §13

[12] = test system: Methicillin-resistant S. epidermidis ATCC 51625; assay: MIC, broth microdilution; details: Staphylococcus epidermidis, ATCC 51625 / MRSE, read-out: Minimum inhibitory concentration MRSE^e
Description: as §7, §8, §9, §10, §11, §12, §13

[13] = CMCC44103, E.coli CMCC 44103, read-out: Minimum inhibitory concentration E.c.^i
[14] = ATCC19606, A. baumannii ATCC 19606, read-out: Minimum inhibitory concentration A.b.^f
[15] = Methicillin-resistant S. aureus ATCC 33591
[16] = Methicillin-resistant S. aureus ATCC 43300
[17] = ATCC29213, S. aureus ATCC 29213, read-out: Minimum inhibitory concentration S.a.^d
[18] = ATCC25922, E. coli ATCC 25922, read-out: Minimum inhibitory concentration E.c.^h
[19] = S. enterica ATCC14028, read-out: Minimum inhibitory concentration S.e.^g
[20] = Methicillin-resistant S. epidermidis ATCC 51625

SMILES: C=C[C@]1(C)C[C@@H](OC(=O)CSc2nc3cc[n+](Cc4ccc(C#N)cc4)cc3[nH]2)[C@]2(C)[C@H](C)CC[C@]3(CCC(=O)[C@H]32)[C@@H](C)[C@@H]1O [Compound h, 5-(4-cyanobenzyl)-2-((2-(((3aR,4R,5R,7S,8S,9R,9aS,12R)-8-hydroxy-4,7,9,12-tetramethyl-3-oxo-7-vinyldecahydro-4,9a-propancyclopenta[8]cyclo-5-yl)oxy)-2-oxoethyl)thio)-3H-imidazo[4,5-C]pyridine-5-ium]
CC50 (HepG2 Cells): 96.3 µM | CC50 (A549 Cells): > 100 µM | CC50 (HEK293 Cells): > 100 µM | MIC [1]: 32 µg/mL | MIC [2]: 8 µg/mL | MIC [3]: 2 µg/mL | MIC [4]: 64 µg/mL | MIC [5]: 32 µg/mL | MIC [6]: 4 µg/mL | MIC [7]: 16 µg/mL | MIC [8]: 16 µg/mL | Antibacterial activity (MIC) MDR-KP^i [9]: 16 µg/mL | MIC (E.coli CMCC 44103; CMCC44103, read-out: Minimum inhibitory concentration E.c.^i): 2 µg/mL | MIC (A. baumannii ATCC 19606; ATCC19606, read-out: Minimum inhibitory concentration A.b.^f): 1 µg/mL | MIC [10]: 2 µg/mL | MIC [11]: 0.5 µg/mL | MIC (S. aureus ATCC 29213; ATCC29213, read-out: Minimum inhibitory concentration S.a.^d): 0.5 µg/mL | MIC (E. coli ATCC 25922; ATCC25922, read-out: Minimum inhibitory concentration E.c.^h): 0.5 µg/mL | MIC (S. enterica ATCC14028; ATCC14028, read-out: Minimum inhibitory concentration S.e.^g): 2 µg/mL | MIC [12]: 0.25 µg/mL

MIC (E.coli CMCC 44103; [13]): 32 µg/mL | MIC (A. baumannii ATCC 19606; [14]): 64 µg/mL | MIC [10, 15]: 64 µg/mL | MIC [11, 16]: 32 µg/mL | MIC (S. aureus ATCC 29213; [17]): 32 µg/mL | MIC (E. coli ATCC 25922; [18]): 64 µg/mL | MIC (S. enterica ATCC14028; [19]): 32 µg/mL | MIC [12, 20]: 64 µg/mL
SMILES: C=C[C@]1(C)C[C@@H](OC(=O)CSc2nc3cc[n+](Cc4cc(F)ccc4C#N)cc3[nH]2)[C@]2(C)[C@H](C)CC[C@]3(CCC(=O)[C@H]32)[C@@H](C)[C@@H]1O [Compound m, 5-(2-cyano-5-fluorobenzyl)-2-((2-(((3aR,4R,5R,7S,8S,9R,9aS,12R)-8-hydroxy-4,7,9,12-tetramethyl-3-oxo-7-vinyldecahydro-4,9a-propancyclopenta[8]cyclo-5-yl)oxy)-2-oxoethyl)thio)-3H-imidazo[4,5-C]pyridine-5-ium]

MIC (E.coli CMCC 44103; [13]): 32 µg/mL | MIC (A. baumannii ATCC 19606; [14]): 64 µg/mL | MIC [10, 15]: 64 µg/mL | MIC [11, 16]: 32 µg/mL | MIC (S. aureus ATCC 29213; [17]): 32 µg/mL | MIC (E. coli ATCC 25922; [18]): 64 µg/mL | MIC (S. enterica ATCC14028; [19]): 128 µg/mL | MIC [12, 20]: 64 µg/mL
SMILES: C=C[C@]1(C)C[C@@H](OC(=O)CSc2nc3cc[n+](Cc4cc(OC)cc(OC)c4)cc3[nH]2)[C@]2(C)[C@H](C)CC[C@]3(CCC(=O)[C@H]32)[C@@H](C)[C@@H]1O [Compound n, 5-(3,5-dimethoxybenzyl)-2-((2-(((3aR,4R,5R,7S,8S,9R,9aS,12R)-8-hydroxy-4,7,9,12-tetramethyl-3-oxo-7-vinyldecahydro-4,9a-propancyclopenta[8]cyclo-5-yl)oxy)-2-oxoethyl)thio)-3H-imidazo[4,5-C]pyridine-5-ium]
